Reference: patent publication US20230248705A1, “ADMINISTRATION OF MODULATORS OF 5-HT AND / OR AMPA RECEPTORS FOR TREATING NEUROLOGICAL CONDITIONS” (THE ROYAL INSTITUTION FOR THE ADVANCEMENT OF …, priority 2020, published 2023)
Entries after “also recorded” stand apart in the source; their conditions may differ.

Assays:
[1] = system: mammalian target of rapamycin complex (mTOR); assay: mTOR phosphorylation in the mPFC; type: in vivo, mice
[2] = system: mice; assay: light-dark box test after chronic restraint stress; type: in vivo; settings: repeated LSD 30 μg/kg, FIG. 2A
Protocol: (§1) A paradigm of repeated stress-induced anxiety-like behavior was employed, in order to mimic anxious states induced by chronic stressor exposure in humans. Chronic restraint stress was chosen for its ability to reliably and relatively quickly induce anxiety-like behavior. Briefly, mice were placed in well ventilated plexiglass restrainers for 2 hours per day, for 15 days, then returned to a horizontal resting position on an open bench. During the procedure, the animals had no access to food and water. Control mice were left undisturbed in their home cage. This regimen duration was chosen given that, in pilot experiments, it represented the minimum duration of restraint stress which exacerbated anxiety-like behavior.
For the light-dark box test, an apparatus consisting of a light, open topped, opaque, plexiglass box (27×27×30 cm) connected to a dark, closed topped, opaque, plexiglass box (18×27×30 cm) was used. The light and dark boxes were connected by a small opening (12×5 cm) which allowed the mouse to cross between the two compartments. The light box was illuminated by a 100 W desk lamp. Each mouse was placed in the illuminated box and observed for 5 min. When the four paws were in the light box, the mouse was considered to be in the light compartment. […]

[3] = system: male C57BL/6J mice; assay: three chambers test (TCT); type: in vivo; settings: repeated LSD 25-35 μg/kg per day for 7 days; vs veh; FIG. 1B
Protocol: (§2) The increase in social interaction was observed 24 hours after the last injection in two validated paradigms of social behavior: the direct social interaction test (FIG. 1A) and the three-chamber test (FIG. 1B).

[4] = system: mice; assay: head-twitches after acute dose; settings: FIG. 3
[5] = system: dopaminergic system; settings: doses 30-120 μg/kg, 60-120 μg/kg; leading to psychotic-like hallucinogenic symptoms; cited from earlier work
[6] = system: healthy volunteers; settings: cited from earlier work
[7] = target: dopamine D2 receptor (Homo sapiens, UniProt P14416); settings: read-out: affinity (ki), partial agonist; cited from earlier work
[8] = system: male C57BL/6J mice; assay: direct social interaction test (DSI); type: in vivo
Protocol: as §2

[9] = system: glutamatergic and serotonergic neurotransmission in the medial prefrontal cortex (mPFC) and in the DRN; assay: electrophysiological experiments in mPFC and DRN; type: in vivo, mice; settings: repeated regimen of LSD
[10] = system: 5-HT neurons originating in the Dorsal Raphe Nucleus (DRN); settings: doses 5-30 μg/kg; mice; cited from earlier work
[11] = system: mice; assay: novelty suppressed feeding test after chronic restraint stress; type: in vivo; settings: repeated LSD 30 μg/kg; chronic restraint stress mice vs vehicle-treated stressed mice; FIG. 2B
Protocol: as §1
This procedure was used to measure neohypophagia (the anxiety-induced inhibition of feeding upon exposure to a novel environment). This test is used to validate the acute effects of putative anxiolytics. Mice were food-deprived for 48-hours; subsequently, each mouse was placed in a brightly illuminated (100 W, 350 Ix) open arena (40×40 cm, white-painted floor with walls 30 cm high), containing standard chow (3 pellets) in the center of the arena. The latency to initiate feeding (in seconds) was used as an index of anxiety-like behavior. […]

dopamine D2 receptor, sequence (P14416 whole entry, species assumed): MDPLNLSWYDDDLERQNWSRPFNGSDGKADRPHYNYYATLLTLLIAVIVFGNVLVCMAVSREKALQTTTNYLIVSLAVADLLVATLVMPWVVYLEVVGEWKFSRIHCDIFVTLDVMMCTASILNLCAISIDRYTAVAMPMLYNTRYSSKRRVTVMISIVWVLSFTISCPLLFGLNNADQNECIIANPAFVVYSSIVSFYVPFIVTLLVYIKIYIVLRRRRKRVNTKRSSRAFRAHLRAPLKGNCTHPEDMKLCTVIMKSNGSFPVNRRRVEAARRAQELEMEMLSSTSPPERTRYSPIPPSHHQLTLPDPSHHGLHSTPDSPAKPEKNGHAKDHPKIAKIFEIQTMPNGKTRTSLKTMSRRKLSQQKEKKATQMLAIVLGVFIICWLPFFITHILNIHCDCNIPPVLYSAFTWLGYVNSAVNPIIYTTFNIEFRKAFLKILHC

Structure (SMILES): CCN(CC)C(=O)[C@@H]1C=C2c3cccc4[nH]cc(c34)C[C@H]2N(C)C1 [LSD, Lysergic acid diethylamide]
- phosphorylation levels of mTOR [1]: increased the phosphorylation levels
- anxiety-like behavior: number of transitions between light and dark compartments [2]: prevents chronic stress-induced anxiety-like behavior; also recorded: number of entries similar to the control mice treated with the vehicle; also recorded: normalized the transition between the dark and the light compartment
- preference for social novelty / sniffing time toward a novel mouse [3]: promoted the preference for the social novelty; also recorded: promotes preference for social novelty
- hallucinogenic effects (head-twitches) ([4]; acute (single) dose 15 μg/kg or less): did not provide hallucinogenic effects
- adverse events (hallucinations, head twitches) ([4]; acute (single) dose 30 μg/kg): produces adverse events
- adverse events (hallucinations, head twitches) ([4]; acute (single) dose 60 μg/kg): produces adverse events
- head twitches versus dose ([4]; as an acute (single) dose is increased): increase in head twitches
- dopaminergic system activity [5]: inhibit the dopaminergic system
- optimism, mood and trait openness ([6]; 2 weeks after LSD administration): increased optimism, mood and trait openness
- mood and social effects ([6]; after 200 μg of LSD): Positive mood changes and altruistic/positive social effects
- social behavior ([6]; healthy volunteers): increase social behavior
- Ki [7]: 25 nM
- social interaction ([8]; lower doses 5, 10 μg/kg for 3 days): non-significant increase in social interaction
- social interaction / interaction time toward the unfamiliar mouse ([8]; repeated LSD 25-35 μg/kg per day for 7 days, 24 hours after last injection, vs veh (saline), FIG. 1A): increased social interaction; also recorded: increases interaction time
- social behavior ([8]; single administration, FIG. 1A): did not produce any effect on social behavior
- glutamatergic and serotonergic neurotransmission [9]: potentiates both glutamatergic and serotonergic neurotransmission
- activity of 5-HT neurons [10]: decreasing the activity of 5-HT neurons
- anxiety-like behavior: latency to feed [11]: prevents chronic stress-induced anxiety-like behavior; also recorded: reduced latency to feed; also recorded: decreased latency to feed
